Patent US7491728B2, “Pyrimidinone compounds as calcilytics” (SmithKline Beecham Corp., priority 2004, dated 2009)

Experiment: Bolus i.v. injection in normal conscious rats: plasma PTH and ionized calcium levels
Assay type: in vivo, male Sprague-Dawley rats
Method: FIG. 1 is a graph which depicts the effect of bolus i.v. injection of the compound of Example 9 on plasma PTH levels in normal rats.
5-Ethyl-3-[2-(2-fluoro-phenyl)-ethyl]-2-(2-hydroxy-phenyl)-6-methyl-3H-pyrimidin-4-one (1 or 3 μmol/kg) or vehicle was administered by intravenous injection over about 15 seconds to normal conscious male Sprague-Dawley rats with chronic indwelling arterial and venous catheters. Arterial blood samples were collected at 30 min and immediately before, and at 1, 5, 10, and 30 min after the start of the injection for measurement of the levels of parathyroid hormone (PTH) and ionized calcium (Ca^2+) in plasma. PTH was measured using a specific rat PTH (1-84) ELISA (Immutopics, San Clemente, Calif.). […] Plasma PTH levels had returned to pre-dose levels by 10 min after the injection (FIG. 1).

SMILES: CCc1c(C)nc(-c2ccccc2O)n(CCc2ccccc2F)c1=O [Example 9, 5-Ethyl-3-[2-(2-fluoro-phenyl)-ethyl]-2-(2-hydroxy-phenyl)-6-methyl-3H-pyrimidin-4-one]
- effect on plasma PTH levels (1 or 3 μmol/kg i.v. over about 15 seconds, normal conscious male Sprague-Dawley rats, rat PTH (1-84) ELISA, FIG. 1): rapid, but transient dose-related increase
- time after injection at which plasma PTH levels were maximal (1 or 3 μmol/kg i.v., rats): 1 min
- time after injection by which plasma PTH levels had returned to pre-dose levels (1 or 3 μmol/kg i.v., rats): ≤ 10 min
- changes in plasma Ca2+ levels (1 or 3 μmol/kg i.v., rats, samples up to 30 min after injection (not shown)): no consistent changes
